In patent US12187816B2, “Macrocyclic compounds and methods of use thereof” (Genentech, Inc., priority 2020, dated 2025):
Starred links: 1 amine or outer side, 2 acyl side, 3 side chain; linkers in the order of their positions; H or OH if unused. Positions of bridges follow the written chain, without caps; N, C: chain ends. Non-standard residues stand in square brackets, D forms with d. Residues, ends and D or L forms follow the SMILES beside them. *: point of attachment. JQ1acid = Cc1sc2c(c1C)C(c1ccc(Cl)cc1)=N[C@@H](CC(=O)*)c1nnc(C)n1-2; dPhg(4-(4-Me-thiazol-5-yl)) = Cc1ncsc1-c1ccc([C@@H](N)C(=O)O)cc1; Phg(4-(4-Me-thiazol-5-yl)) = Cc1ncsc1-c1ccc([C@H](N)C(=O)O)cc1; X3 = Cc1ncsc1-c1ccc(C(N[*:1])C(=O)[*:2])cc1; Hyp = O=C(O)[C@@H]1C[C@@H](O)CN1; Tle = CC(C)(C)[C@H](N)C(=O)O; d(hCys) = N[C@H](CCS)C(=O)O; dDab = NCC[C@@H](N)C(=O)O; dDap = NC[C@@H](N)C(=O)O; βAla = NCCC(=O)O

Target: T1, BRD4 (Homo sapiens, UniProt O60885)
T1 construct: Mean 488 intensity of BRD4 quantitated in nuclear region; endogenous in cells; host or cells: EoL-1 eosinophilic leukemia cells
Assay: BRD4 degradation assay in EOL1 cells (immunofluorescence imaging)
Format: cell-based
Details: EoL-1 eosinophilic leukemia cells, 4 hours treatment, nuclear BRD4 immunofluorescence
Protocol: BRD4 Degradation Assay in EOL1 Cells
EoL-1 eosinophilic leukemia cells were seeded on day 1 at a density of 45,000 cells per well in Corning PureCoat Amine Microplates, (Corning #354719) in 45 μL/well of assay media (RPMI, 10% FBS, containing L-glutamine). After cells attached to cell plate, compounds were serially diluted ⅓ in dimethylsulfoxide (DMSO) to create 20-point dilutions across a 384 well v-bottom polypropylene microplate (Greiner #781091). 2 μL of each sample from the serial dilution was transferred to 98 μL of assay media as an intermediate dilution. 5 μL of each well of the intermediate dilution was added to 45 μL of cell plate. Columns 1, 2, 23 and 24 were treated with only 0.2% final concentration of DMSO for data normalization as “neutral controls”. After compound treatment, cell plates were stored in a 37° C. incubator for 4 hours. After 4 hours cells were fixed in 3.7% w/v final concentration of paraformaldehyde by addition of 15 μL of 16% w/v paraformaldehyde (Electron Microscopy Sciences #15710-S) directly to the 50 μL media and compound in the cell plate. Cell plate was incubated at RT for 20 minutes. Well contents were aspirated and washed with 100 μL/well PBS 3 times. 50 ul/well of phosphate Buffered Saline (PBS) (pH 7.5) containing 0.5% w/v bovine serum albumen, 0.5% w/v Triton X-100 (Block/Permeabilization Buffer) was added to each well. Samples were incubated for 20 minutes. Well contents were aspirated and washed 3 times with 100 μL/well of PBS. PBS was aspirated from the well and 50 μL per well of EoL-1 Block Buffer (PBS containing 10% Normal Goat Serum (AbCam #ab7481)) was added to each well. Plates were incubated at room temperature for 30 minutes. Block buffer was decanted from the wells. Immunofluorescence staining of BRD4 was carried out by diluting mAB Anti-BRD4 [EPR5150] antibody (Abcam 128874) 1:500 into Antibody Dilution Buffer (PBS, 2% Normal Goat Serum). 25 μL per well of BRD4 antibody diluted in buffer was added and incubated overnight at 4° C.
On day-2 samples were washed 3 times with 100 μL/well of PBS. 25 μL/well of secondary antibody solution (Goat Anti-Rabbit IgG, DyLight 488 Conjugated Highly Cross-adsorbed Thermo Fisher #35553) and Hoechst 33342 1 μg/ml diluted in Antibody Dilution Buffer) were dispensed into each well. Hoechst 33342 only was added to bottom 3 columns for data normalization as “inhibitor controls”. Samples were incubated for 2 hours at room temperature. Samples were washed 3 times with 100 μL PBS. Quantitative fluorescence imaging of BRD4 was carried out using an Opera Phenix High-Content Screening System. Fluorescent images of the samples were captured using 488 nm and 405 nm channels. Hoechst channel was used to identify nuclear region. Mean 488 intensity of BRD4 quantitated in nuclear region. Data analysis was carried out using Genedata Screener, with DMSO and no primary antibody control treated samples being used to define the 0% and 100% changes in BRD4. The dose-response log(inhibitor) vs. response used to define the inflexion point of curve (DC50) and the plateau of the maximal effect.
The individual topological polar surface area (TPSA) and cLogP values were calculated using Chemdraw v. 15.1 (PerkinElmer). Half life of the ternary VHL/BD1 and VHL/BD2 complexes, DC50 of BRD4 in EOL1 cells, topological polar surface area of a molecule (TPSA) and c log P (lipophilicity) for compounds described herein are provided in Table 3.

| SMILES | DC50 |
| --- | --- |
| Cc1ncsc1-c1ccc([C@H]2NC(=O)[C@@H]3C[C@@H](O)CN3C(=O)[C@H](C(C)(C)C)NC(=O)CSC[C@H](C(N)=O)NC(=O)[C@@H](CNC(=O)C[C@@H]3N=C(c4ccc(Cl)cc4)c4c(sc(C)c4C)-n4c(C)nnc43)NC(=O)CNC2=O)cc1 [Compound 1] ({CH2CO}-[Tle][Hyp][dPhg(4-(4-Me-thiazol-5-yl))]G[dDap](JQ1acid)[dC]-NH2; thioether N-6) | < 1 µM |
| Cc1ncsc1-c1ccc([C@@H]2NC(=O)[C@@H]3C[C@@H](O)CN3C(=O)[C@H](C(C)(C)C)NC(=O)CSC[C@H](C(N)=O)NC(=O)[C@@H](CNC(=O)C[C@@H]3N=C(c4ccc(Cl)cc4)c4c(sc(C)c4C)-n4c(C)nnc43)NC(=O)CNC2=O)cc1 [Compound 2] ({CH2CO}-[Tle][Hyp][Phg(4-(4-Me-thiazol-5-yl))]G[dDap](JQ1acid)[dC]-NH2; thioether N-6) | > 20 µM |
| Cc1ncsc1-c1ccc(C2NC(=O)[C@@H]3C[C@@H](O)CN3C(=O)[C@H](C(C)(C)C)NC(=O)CSCC[C@H](C(N)=O)NC(=O)[C@@H](CNC(=O)C[C@@H]3N=C(c4ccc(Cl)cc4)c4c(sc(C)c4C)-n4c(C)nnc43)NC(=O)CNC2=O)cc1 (stereo partly drawn) [Compound 3] ({CH2CO}-[Tle][Hyp][X3]G[dDap](JQ1acid)[d(hCys)]-NH2; thioether N-6) | < 1 µM |
| Cc1ncsc1-c1ccc(C2NC(=O)[C@@H]3C[C@@H](O)CN3C(=O)[C@H](C(C)(C)C)NC(=O)CSC[C@H](C(N)=O)NC(=O)[C@@H](CNC(=O)C[C@@H]3N=C(c4ccc(Cl)cc4)c4c(sc(C)c4C)-n4c(C)nnc43)NC(=O)CCNC2=O)cc1 (stereo partly drawn) [Compound 4] ({CH2CO}-[Tle][Hyp][X3][βAla][dDap](JQ1acid)[dC]-NH2; thioether N-6) | < 20 µM |
| Cc1ncsc1-c1ccc([C@H]2NC(=O)[C@@H]3C[C@@H](O)CN3C(=O)[C@H](C(C)(C)C)NC(=O)CSCC[C@H](C(N)=O)NC(=O)[C@@H](CNC(=O)C[C@@H]3N=C(c4ccc(Cl)cc4)c4c(sc(C)c4C)-n4c(C)nnc43)NC(=O)CCNC2=O)cc1 [Compound 5] ({CH2CO}-[Tle][Hyp][dPhg(4-(4-Me-thiazol-5-yl))][βAla][dDap](JQ1acid)[d(hCys)]-NH2; thioether N-6) | < 20 µM |

Other lines, results leading:

| DC50 | SMILES |
| --- | --- |
| < 20 µM | Cc1ncsc1-c1ccc([C@H]2NC(=O)[C@@H]3C[C@@H](O)CN3C(=O)[C@H](C(C)(C)C)NC(=O)CNC(=O)[C@H](CCC(N)=O)NC(=O)[C@@H](CNC(=O)C[C@@H]3N=C(c4ccc(Cl)cc4)c4c(sc(C)c4C)-n4c(C)nnc43)NC(=O)CNC2=O)cc1 [Compound 6] (cyclo(G[Tle][Hyp][dPhg(4-(4-Me-thiazol-5-yl))]G[dDap](JQ1acid)Q)) |
| < 20 µM | Cc1ncsc1-c1ccc([C@@H]2NC(=O)[C@@H]3C[C@@H](O)CN3C(=O)[C@H](C(C)(C)C)NC(=O)CNC(=O)[C@H](CCC(N)=O)NC(=O)[C@@H](CNC(=O)C[C@@H]3N=C(c4ccc(Cl)cc4)c4c(sc(C)c4C)-n4c(C)nnc43)NC(=O)CNC2=O)cc1 [Compound 7] (cyclo(G[Tle][Hyp][Phg(4-(4-Me-thiazol-5-yl))]G[dDap](JQ1acid)Q)) |
| < 20 µM | Cc1sc2c(c1C)C(c1ccc(Cl)cc1)=N[C@@H](CC(=O)NC[C@H]1NC(=O)CNC(=O)[C@@H](C)NC(=O)[C@@H]3C[C@@H](O)CN3C(=O)[C@H](C(C)(C)C)NC(=O)CSC[C@H](C(N)=O)NC1=O)c1nnc(C)n1-2 [Compound 8] ({CH2CO}-[Tle][Hyp][dA]G[dDap](JQ1acid)[dC]-NH2; thioether N-6) |
| > 20 µM | Cc1ncsc1-c1ccc([C@H]2NC(=O)[C@@H]3C[C@@H](O)CN3C(=O)[C@H](C(C)(C)C)NC(=O)CSC[C@H](C(N)=O)NC(=O)[C@@H](CCNC(=O)C[C@@H]3N=C(c4ccc(Cl)cc4)c4c(sc(C)c4C)-n4c(C)nnc43)NC(=O)CNC2=O)cc1 [Compound 9] ({CH2CO}-[Tle][Hyp][dPhg(4-(4-Me-thiazol-5-yl))]G[dDab](JQ1acid)[dC]-NH2; thioether N-6) |
